Patent US20180344680A1, “COMPOSITIONS AND METHODS FOR TREATMENT, AMELIORATION, AND PREVENTION OF DIABETES-RELATED SKIN ULCERS” (THE ARIZONA BOARD OF REGENTS ON BEHALF OF THE UNIVERSITY OF …, priority 2015, published 2018)

How the values were obtained:
wound skin tissues = test: Apoptosis by TUNEL in wound skin tissues of STZ mice; type: in vivo, mouse
Excerpt: Diabetes mouse model and treatments. Nrf2^+/+ and Nrf2^-/- C57BL/6 mice were described previously (see, e.g., Jiang T, et al., Diabetes 59:850-860, 2010) and were housed and handled in accordance with the University of Arizona Institutional Animal Care policies. The STZ-induced diabetic model was previously described (see, e.g., Zheng H, et al., Diabetes 60:3055-3066, 2011) and only 8 week old male mice were included in this study. Briefly, three weeks after STZ injections, fasting glucose levels (FGL, 4 h fast) were measured using the AlphaTRAK system (Abbott Laboratory, North Chicago, Ill.) and mice with a FGL higher than or equal to 250 mg/dL were considered diabetic and included in the study (see, e.g., FIG. 2A and FIG. 3A for a detailed timeline). […] Gross wound closure was quantified by ImageJ software, and wound healing was expressed as the percentage of the original wound area that had healed. […] ROS were measured in HaCaT cells using DCF. […] Then, 48 h later, the cells were switched into fresh medium containing 10 μg/mL DCF, incubated 30 min, and fluorescence intensity was measured by flow cytometry. […] For this, 8000 HaCaT cells/well were seeded in LG or HG media, with or without an NRF2 activator, and cell growth was monitored for 72 h. […]

HaCaT cells = test: Cell growth (xCELLigence) of HaCaT cells; type: cell-based, human; conditions: 5 μmol/L SF or 20 μmol/L CA, up to 72 h
Method: (§1) Human immortalized keratinocytes HaCaT were obtained from the Arizona Cancer Center (see, e.g., Boukamp P, et al., J Cell Biol 106:761-771, 1988). Cells were grown in Dulbecco's modified Eagle's medium (DMEM) containing low glucose (LG, 5.5 mmol/L) and 10% fetal bovine serum (FBS) in an incubator at 37° C. with 5% CO2. For the experiments, the cells were starved in serum-free LG DMEM for 24 h, then either maintained in LG DMEM or switched to high glucose (HG, 25 mmol/L) DMEM for 2 days (see, e.g., Zheng H, et al., Diabetes 60:3055-3066, 2011; Lan C C, et al., Br J Dermatol 159:1103-1115, 2008). For the treatments, the cells were dosed with 5 μmol/L SF or 20 μmol/L CA.
(§2) siRNA transfections. […]
(§3) Reactive oxygen species (ROS) measurement, cell proliferation and apoptosis. ROS were measured in HaCaT cells using DCF. […] Then, 48 h later, the cells were switched into fresh medium containing 10 μg/mL DCF, incubated 30 min, and fluorescence intensity was measured by flow cytometry. The rate of cell proliferation was measured by two methods (see, e.g., Ren D, et al., Proc Natl Acad Sci USA 108:1433-1438, 2011): 1) detection of Ki67 using indirect immunofluorescence as described previously (see, e.g., Lau A, et al., Mol Cell Biol 30:3275-3285, 2010); and 2) using the xCELLigence system (Roche). […]

Ki67 = Ki67 immunofluorescence in HaCaT cells; type: cell-based, human; conditions: HG HaCaT cells; 5 μmol/L SF or 20 μmol/L CA
Method: as §1, §2, §3

| Compound | apoptosis (TUNEL) (wound skin tissues) | inhibition of cell proliferation by HG (cell growth) (HaCaT cells) | Ki67 expression (Ki67) |
| --- | --- | --- | --- |
| O=CC=Cc1ccccc1 [CA, Cinnamaldehyde] | reduced apoptosis to a lesser extent than in Con | partly counteracted | could restore some of the Ki67 expression |
| C[S@@+]([O-])CCCCN=C=S [SF, L-sulforaphane] | reduced apoptosis to a lesser extent than in Con | partly counteracted | could restore some of the Ki67 expression |
